Test results published in ChEMBL document CHEMBL3885861, “Open TG-GATES”.

Species on record: Rattus norvegicus
Assay: Open TG-GATES - Regimen: Single
Type: toxicity, organism-based, Sprague-Dawley
Design: regimen Single, gender Male, age 6 weeks
Conditions: in vivo, po, 100 mg/kg, route gavage, dose level Low; for APTT / Bas / Eos / Fbg / Hb / Ht / Lym / MCH / MCHC / MCV / Mono / Neu / PT / Plat / RBC / Ret / WBC: tissue Blood; for KIDNEY_L / KIDNEY_R / KIDNEY_TOTAL: tissue Kidney; for LIVER: tissue Liver; for A/G / ALP / ALT / AST / BUN / CRE / Ca / Cl / DBIL / GLC / IP / K / LDH / Na / PL / RALB / TBIL / TC / TG / TP / gamma-GTP: tissue Plasma

CCOC(=O)CCC(=O)O[C@H]1[C@H](O[C@@H]2[C@@H](C)[C@H](O[C@H]3C[C@@](C)(OC)[C@@H](O)[C@H](C)O3)[C@@H](C)C(=O)O[C@H](CC)[C@@](C)(O)[C@H](O)[C@@H](C)C(=O)[C@H](C)C[C@@]2(C)O)O[C@H](C)C[C@@H]1N(C)C [ERYTHROMYCIN ETHYLSUCCINATE]
TERMINAL_BW (3 h): 214.5 g | APTT (3 h): 22.9 s | Bas (3 h): 0% | Eos (3 h): 0.8% | Fbg (3 h): 311.4 mg/dL | Hb (3 h): 13.2 g/dL | Ht (3 h): 39.7% | Lym (3 h): 77.4% | MCH (3 h): 21.4 pg | MCHC (3 h): 33.2% | MCV (3 h): 64.4 fL | Mono (3 h): 2.6% | Neu (3 h): 18.6% | PT (3 h): 16.2 s | Plat (3 h): 111.6 x10_4/uL | RBC (3 h): 617.6 x10_4/ul | Ret (3 h): 8.2% | WBC (3 h): 78.3 x10_2/uL | KIDNEY_L (3 h): 0.9 g | KIDNEY_R (3 h): 1 g | KIDNEY_TOTAL (3 h): 1.9 g | LIVER (3 h): 9.9 g | A/G (3 h): 1.2 | ALP (3 h): 1930.6 IU/L | ALT (3 h): 47.6 IU/L | AST (3 h): 78 IU/L | BUN (3 h): 12.8 mg/dL | CRE (3 h): 0.1 mg/dL | Ca (3 h): 10.5 mg/dL | Cl (3 h): 102.8 meq/L | DBIL (3 h): 0.006 mg/dL | GLC (3 h): 189.2 mg/dL | IP (3 h): 9.1 mg/dL | K (3 h): 3.8 meq/L | LDH (3 h): 147.2 IU/L | Na (3 h): 139.2 meq/L | PL (3 h): 142.6 mg/dL | RALB (3 h): 2.9 g/dL | TBIL (3 h): 0.02 mg/dL | TC (3 h): 73 mg/dL | TG (3 h): 70.2 mg/dL | TP (3 h): 5.5 g/dL | gamma-GTP (3 h): 1 IU/L | TERMINAL_BW (6 h): 213.8 g | APTT (6 h): 22.8 s | Bas (6 h): 0% | Eos (6 h): 0.8% | Fbg (6 h): 308 mg/dL | Hb (6 h): 13.2 g/dL | Ht (6 h): 39.8% | Lym (6 h): 76.6% | MCH (6 h): 20.9 pg | MCHC (6 h): 33.1% | MCV (6 h): 63.4 fL | Mono (6 h): 2.6% | Neu (6 h): 18.8% | PT (6 h): 16 s | Plat (6 h): 118.8 x10_4/uL | RBC (6 h): 628 x10_4/ul | Ret (6 h): 7.8% | WBC (6 h): 108.5 x10_2/uL | KIDNEY_L (6 h): 1 g | KIDNEY_R (6 h): 1 g | KIDNEY_TOTAL (6 h): 2 g | LIVER (6 h): 9.2 g | A/G (6 h): 1.1 | ALP (6 h): 1420.4 IU/L | ALT (6 h): 40.2 IU/L | AST (6 h): 72 IU/L | BUN (6 h): 12 mg/dL | CRE (6 h): 0.2 mg/dL | Ca (6 h): 10.5 mg/dL | Cl (6 h): 104 meq/L | DBIL (6 h): 0 mg/dL | GLC (6 h): 187.6 mg/dL | IP (6 h): 9.5 mg/dL | K (6 h): 4.2 meq/L | LDH (6 h): 182 IU/L | Na (6 h): 138 meq/L | PL (6 h): 132.2 mg/dL | RALB (6 h): 2.8 g/dL | TBIL (6 h): 0.02 mg/dL | TC (6 h): 69.8 mg/dL | TG (6 h): 63.4 mg/dL | TP (6 h): 5.3 g/dL | gamma-GTP (6 h): 1.2 IU/L | TERMINAL_BW (9 h): 216.4 g | APTT (9 h): 23.3 s | Bas (9 h): 0% | Eos (9 h): 1% | Fbg (9 h): 315 mg/dL | Hb (9 h): 13.3 g/dL | Ht (9 h): 40.4% | Lym (9 h): 80.4% | MCH (9 h): 21.5 pg | MCHC (9 h): 33% | MCV (9 h): 65 fL | Mono (9 h): 2% | Neu (9 h): 15.8% | PT (9 h): 15.6 s | Plat (9 h): 121.2 x10_4/uL | RBC (9 h): 622 x10_4/ul | Ret (9 h): 8% | WBC (9 h): 73.2 x10_2/uL | KIDNEY_L (9 h): 1 g | KIDNEY_R (9 h): 1.1 g | KIDNEY_TOTAL (9 h): 2.1 g | LIVER (9 h): 9.2 g | A/G (9 h): 1.2 | ALP (9 h): 1398.8 IU/L | ALT (9 h): 32.4 IU/L | AST (9 h): 64 IU/L | BUN (9 h): 12.4 mg/dL | CRE (9 h): 0.1 mg/dL | Ca (9 h): 10.6 mg/dL | Cl (9 h): 105.4 meq/L | DBIL (9 h): 0 mg/dL | GLC (9 h): 188.8 mg/dL | IP (9 h): 9.5 mg/dL | K (9 h): 4.2 meq/L | LDH (9 h): 145.6 IU/L | Na (9 h): 138.6 meq/L | PL (9 h): 136 mg/dL | RALB (9 h): 3 g/dL | TBIL (9 h): 0.012 mg/dL | TC (9 h): 78.2 mg/dL | TG (9 h): 87.4 mg/dL | TP (9 h): 5.5 g/dL | gamma-GTP (9 h): 1.4 IU/L | TERMINAL_BW (24 h): 222.7 g | APTT (24 h): 21.4 s | Bas (24 h): 0% | Eos (24 h): 0.8% | Fbg (24 h): 326.2 mg/dL | Hb (24 h): 13.8 g/dL | Ht (24 h): 41.6% | Lym (24 h): 86.4% | MCH (24 h): 20.6 pg | MCHC (24 h): 33.2% | MCV (24 h): 62.2 fL | Mono (24 h): 3% | Neu (24 h): 8.2% | PT (24 h): 16 s | Plat (24 h): 122.9 x10_4/uL | RBC (24 h): 670 x10_4/ul | Ret (24 h): 6.7% | WBC (24 h): 102.3 x10_2/uL | KIDNEY_L (24 h): 0.9 g | KIDNEY_R (24 h): 1 g | KIDNEY_TOTAL (24 h): 1.9 g | LIVER (24 h): 9.5 g | A/G (24 h): 1.3 | ALP (24 h): 1407.8 IU/L | ALT (24 h): 43.4 IU/L | AST (24 h): 70.4 IU/L | BUN (24 h): 14 mg/dL | CRE (24 h): 0.1 mg/dL | Ca (24 h): 10.6 mg/dL | Cl (24 h): 106.6 meq/L | DBIL (24 h): 0.002 mg/dL | GLC (24 h): 200.6 mg/dL | IP (24 h): 7.7 mg/dL | K (24 h): 4.1 meq/L | LDH (24 h): 183.2 IU/L | Na (24 h): 142.4 meq/L | PL (24 h): 140.4 mg/dL | RALB (24 h): 3.1 g/dL | TBIL (24 h): 0.03 mg/dL | TC (24 h): 83 mg/dL | TG (24 h): 71.6 mg/dL | TP (24 h): 5.5 g/dL | gamma-GTP (24 h): 1.4 IU/L
